Reference: US20100036088A1, “Selective poly-N-substituted glycine antibiotics” (priority 2008, published 2010)
In brackets after ≈: the same amount, converted by molar mass. Like-named read-outs stand apart in the source and are kept apart here. Square brackets hold non-standard residues; d marks the D form. Peptide text beside a SMILES is read from it. Nspe = C[C@H](NCC(=O)O)c1ccccc1; Nphe = O=C(O)CNCc1ccccc1; Nlys = NCCCCNCC(=O)O

How the values were obtained:
[1] = system: human erythrocytes; test: Hemolysis assay; type: cell-based
Method in brief: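 Peptoid serial dilutions in PBS pH 7.4 were combined with an equal volume of 20 vol % washed human red cells (heparinised blood) for 1 h at 37 °C. After dilution and pelleting at 1200 g, released haemoglobin in supernatant was read at A350, scaled between PBS and 0.2 vol % Triton X-100 controls.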

[2] = MTS assay, metabolic inhibition; type: cell-based, mouse
Method in brief: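 NIH/3T3 cells seeded at 5,000 per well, grown a day, then exposed to serially diluted peptoids in HBSS together with MTS reagent. Absorbance at 490 nm read after 3 hours at 37° C.; mean of six replicates.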

[3] = system: Enterobacter aerogenes ATCC 35029; type: cell-based
Protocol: (§1) Antibacterial assays. MICs were determined according to CLSI M7-A6 protocols in a 96-well microtiter plate. In test wells, 50 μL bacterial inoculum (5×10^5 CFU/ml) in Mueller-Hinton broth (MHB) was added to 50 μL peptoid solution in MHB (prepared by 1:2 serial dilutions). Positive controls contained 50 μL inoculum and 50 μL MHB without peptoid. […] MIC values reported were reproducible between three independent experimental replicates, each consisting of two parallel trials. Broad-spectrum antimicrobial susceptibility testing was performed against BSL2 pathogens by Nova Biologicals, Inc. (Conroe, Tex.).
(§2) Broad-spectrum antibacterial assays. MICs of compounds were determined by microdilution procedure in Mueller-Hinton broth (MHB) in accordance with CLSI M7-A6 protocols in a manner similar to that described for the screen antibacterial assays. Inoculated microtiter plates were incubated at 35° C. for 24 hours prior to the result being recorded. Four ATCC strains that were used as standards are recommended by CLSI: Pseudomonas aeruginosa ATCC 27853, Escherichia coli ATCC 25922, Staphylococcus aureus ATCC 29213 and Enterococcus faecalis ATCC 29212. Other strains from the ATCC collection include Proteus vulgaris ATCC 49132, Proteus mirabilis ATCC 35659, Klebsiella pneumoniae ATCC 33495, Enterobacter aerogenes ATCC 35029 and Serratia marcescens ATCC 13880. S. aureus NRS100 (COL) is a well characterized methicillian-resistant S. aureus (MRSA) strain. The strains S. aureus VAN1 and S. aureus VAN2, vancomycin-resistant MRSA strains that were isolated in Michigan and Pennsylvania, were the first vancomycin-resistant strains clinically isolated. S. aureus NRS119 and S. aureus NRS120 are linezolid-resistant isolates from the Network on Antimicrobial Resistance in S. aureus (NARSA) collection. E. faecalis 99 and E. faecium 106 are vancomycin-resistant enterococcal strains.

[4] = system: Enterococcus faecalis 99; type: cell-based
Protocol: as §1, §2

[5] = system: Enterococcus faecium 106; type: cell-based
Protocol: as §1, §2

[6] = system: Proteus mirabilis ATCC 35659; type: cell-based
Protocol: as §1, §2

[7] = system: Proteus vulgaris ATCC 49132; type: cell-based
Protocol: as §1, §2

[8] = system: Pseudomonas aeruginosa ATCC 27853; type: cell-based
Protocol: as §1, §2

[9] = system: Serratia marcescens ATCC 13880; type: cell-based
Protocol: as §1, §2

[10] = system: Staphylococcus aureus ATCC 29213; type: cell-based
Protocol: as §1, §2

[11] = system: Staphylococcus aureus NRS100 (COL); type: cell-based
Protocol: as §1, §2

[12] = system: Staphylococcus aureus NRS119; type: cell-based
Protocol: as §1, §2

[13] = system: Staphylococcus aureus VAN1; type: cell-based
Protocol: as §1, §2

[14] = system: Staphylococcus aureus VAN2; type: cell-based
Protocol: as §1, §2

[15] = Table 7A, MRSA, vancomycin-resistant

## C[C@@H](c1ccccc1)N(CC(N)=O)C(=O)CN(C(=O)CN(CCCCN)C(=O)CN(C(=O)CN(C(=O)CN(CCCCN)C(=O)CN(C(=O)CN(C(=O)CN(CCCCN)C(=O)CN(C(=O)CN(C(=O)CNCCCCN)[C@@H](C)c1ccccc1)[C@@H](C)c1ccccc1)[C@@H](C)c1ccccc1)[C@@H](C)c1ccccc1)[C@@H](C)c1ccccc1)[C@@H](C)c1ccccc1)[C@@H](C)c1ccccc1 [compound 1, H-(NLys-Nspe-Nspe)4-NH2] (H-[Nlys][Nspe][Nspe][Nlys][Nspe][Nspe][Nlys][Nspe][Nspe][Nlys][Nspe][Nspe]-NH2)
[1]; Table 1, human erythrocytes
  HD10 (10% hemolytic dose): 21 µM
  HD50 (50% hemolytic dose): 100 µM
[1]; Table 2
  HD10: 18 µM
  HD50: 72 µM
[1]; Table 3
  HD10: 21 µM
  HD50: 100 µM
[1]; Table 6
  HD10: 21 µM
  HD50: 100 µM
[2]; Table 6, NIH 3T3 mouse fibroblast cells
  IC50: 5.1 µM
[3]; Table 4, Gram −
  MIC Enterobacter aerogenes ATCC 35029: 8.8 µM (≈ 16 µg/mL)
[4]; Table 4, vancomycin resistant
  MIC Enterococcus faecalis 99: 4.4 µM (≈ 8.01 µg/mL)
[5]; Table 4, vancomycin resistant
  MIC Enterococcus faecium 106: 2.2 µM (≈ 4 µg/mL)
[6]; Table 4, Gram −
  MIC Proteus mirabilis ATCC 35659: >70.4 µM
[6]; Table 7A
  MIC P. mirabilis ATCC 35659: >128 µg/mL
[7]; Table 4, Gram −
  MIC Proteus vulgaris ATCC 49132: 17.6 µM (≈ 32 µg/mL)
[8]; Table 4, Gram −
  MIC Pseudomonas aeruginosa ATCC 27853: 4.4 µM (≈ 8.01 µg/mL)
[9]; Table 4, Gram −
  MIC Serratia marcescens ATCC 13880: 70.4 µM (≈ 128 µg/mL)
[10]; Table 4, Gram +
  MIC Staphylococcus aureus ATCC 29213: 2.2 µM
[11]; Table 4, Gram +
  MIC Staphylococcus aureus NRS100 (COL): 2.2 µM
[12]; Table 4, Gram +
  MIC Staphylococcus aureus NRS119: 2.2 µM
[13]; Table 4, vancomycin resistant
  MIC Staphylococcus aureus VAN1: 2.2 µM (≈ 4 µg/mL)
[14]; Table 4, vancomycin resistant
  MIC Staphylococcus aureus VAN2: 2.2 µM (≈ 4 µg/mL)

## NCCCCNCC(=O)N(CC(=O)N(CC(=O)N(CCCCN)CC(=O)N(CC(=O)N(CC(=O)N(CCCCN)CC(=O)N(CC(=O)N(CC(=O)N(CCCCN)CC(=O)N(CC(=O)N(CC(N)=O)Cc1ccccc1)Cc1ccccc1)Cc1ccccc1)Cc1ccccc1)Cc1ccccc1)Cc1ccccc1)Cc1ccccc1)Cc1ccccc1 [1achiral, H-(Nlys-Npm-Npm)4-NH2] (H-[Nlys][Nphe][Nphe][Nlys][Nphe][Nphe][Nlys][Nphe][Nphe][Nlys][Nphe][Nphe]-NH2)
[2]
  IC50: 16 µM
[3]; ATCC 35029
  MIC Enterobacter aerogenes ATCC 35029: 75.0 µM (≈ 128 µg/mL)
[3]; Table 7A
  MIC E. aerogenes ATCC 35029: 128 µg/mL (≈ 75 µM)
[4]; 99
  MIC Enterococcus faecalis 99: 37.5 µM (≈ 64 µg/mL)
[4]; Table 7A
  MIC E. faecalis 99: 64 µg/mL (≈ 37.5 µM)
[5]; 106
  MIC Enterococcus faecium 106: 2.3 µM (≈ 3.93 µg/mL)
[5]; Table 7A
  MIC E. faecium 106: 4 µg/mL (≈ 2.34 µM)
[6]; ATCC 35659
  MIC P. mirabilis ATCC 35659: >128 µg/mL
  MIC Proteus mirabilis ATCC 35659: >75 µM
[7]; ATCC 49132
  MIC Proteus vulgaris ATCC 49132: 18.7 µM (≈ 31.9 µg/mL)
[7]; Table 7A
  MIC P. vulgaris ATCC 49132: 32 µg/mL (≈ 18.7 µM)
[8]; ATCC 27853
  MIC Pseudomonas aeruginosa ATCC 27853: 9.4 µM (≈ 16 µg/mL)
[8]; Table 7A
  MIC P. aeruginosa ATCC 27853: 16 µg/mL (≈ 9.37 µM)
[9]; ATCC 13880
  MIC S. marcescens ATCC 13880: >128 µg/mL
  MIC Serratia marcescens ATCC 13880: >75 µM
[10]; ATCC 29213
  MIC Staphylococcus aureus ATCC 29213: 4.7 µM (≈ 8.02 µg/mL)
[10]; Table 7A
  MIC S. aureus ATCC 29213: 8 µg/mL (≈ 4.69 µM)
[11]; NRS100 (COL)
  MIC Staphylococcus aureus NRS100 (COL): 4.7 µM (≈ 8.02 µg/mL)
[11]; Table 7A, MRSA
  MIC S. aureus NRS100 (COL): 8 µg/mL (≈ 4.69 µM)
[12]; NRS119
  MIC Staphylococcus aureus NRS119: 9.4 µM (≈ 16 µg/mL)
[12]; Table 7A, linezolid-resistant
  MIC S. aureus NRS119: 16 µg/mL (≈ 9.37 µM)
[13]; [15]
  MIC S. aureus VAN1: 8 µg/mL (≈ 4.69 µM)
[13]; VAN1
  MIC Staphylococcus aureus VAN1: 4.7 µM (≈ 8.02 µg/mL)
[14]; [15]
  MIC S. aureus VAN2: 8 µg/mL (≈ 4.69 µM)
[14]; VAN2
  MIC Staphylococcus aureus VAN2: 4.7 µM (≈ 8.02 µg/mL)
